Data set [1] concerns VHSV (F1Wa05 strain). Put plainly: Cytopathic effect (CPE) reduction assay, VHSV in FHM cells. The procedure:
(§1) Specifically, three major fish pathogenic viruses VHSV (F1Wa05 strain), IHNV (RtPy91 strain), and IPNV (VR299 strain) were used to study the antiviral activity of Octominin. Octominin at various concentrations reacted with an equal amount of virus (infectious titer: 200 TCID50/mL) at 15° C. for 1 hour. Thereafter, the reactant was overlaid onto quadruplicate FHM cells in a 96-well plate (1×10^5 cells/mL) and incubated for 96 hours.
(§2) CPE was scored by optical microscopy using a DIAPHOT 300 inverted microscope (Nikon Cooperation, Tokyo, Japan) (score 0, 0% CPE; score 1, 10 to 20% CPE; score 2, 30 to 40% CPE; score 3, 50 to 60% CPE; score 4, 70 to 80% CPE; and score 5, 90 to 100%). The results were expressed as a 50% effective concentration (EC50) and calculated using Microsoft Excel software. Ribavirin, a known broad-spectrum antiviral agent, was used as a positive control group. The antiviral activity of Octominin was evaluated by calculation using Equation SI (selective index)=CC50/EC50.

Data set [2] can be described thus: in vitro. The format is cell-based.
Data set [3] has as its system IHNV (RtPy91 strain). Put plainly: microbe, parasite or virus in culture. On the procedure: as §1, §2
Data set [4] deals with IPNV (VR299 strain). Briefly: in vitro. On the procedure: as §1, §2
The nature of data set [5]: in vitro. The format is cell-based. As to conditions: fathead minnow.
Where [6] appears, read: fathead minnow (Pimephales promelas), 96 h.

The structures appear in SMILES notation. Values joined by “and” are separate entries in the source; they are usually repeats but may differ in a detail not shown here. Equal entries are not always repeated. Peptide text beside a SMILES is read from it.

`NC(=O)c1ncn([C@@H]2O[C@H](CO)[C@@H](O)[C@H]2O)n1` [Ribavirin]: the EC50 in data set [1] (Viral hemorrhagic septicemia virus, 96 h) was 270 nM; in data set [3] (Infectious hematopoietic necrosis virus, 96 h), 550 nM; in data set [4] (Infectious pancreatic necrosis virus, CHSE-214), 750 nM. Moreover, the selectivity ratio at 96 h in data set [1] (fathead minnow, FHM cells infected with VHSV (F1Wa05 strain)) worked out at 3560; in data set [3] (fathead minnow), 1750; in data set [4] (Chinook salmon), 162. For the same molecule, the CC50 was found to be 121000 nM in data set [2] (Chinook salmon) and 962000 nM in data set [5].

With `CC[C@H](C)[C@H](NC(=O)[C@H](C)NC(=O)[C@H](CCCCN)NC(=O)CNC(=O)[C@H](C)NC(=O)[C@H](Cc1c[nH]cn1)NC(=O)[C@@H](NC(=O)[C@H](C)NC(=O)CNC(=O)[C@H](CCCNC(=N)N)NC(=O)[C@@H](NC(=O)[C@H](CC(C)C)NC(=O)[C@H](Cc1c[nH]c2ccccc12)NC(=O)CN)[C@@H](C)CC)[C@@H](C)CC)C(=O)N[C@@H](Cc1c[nH]cn1)C(=O)NCC(=O)N[C@@H](CC(C)C)C(=O)N[C@H](C(=O)N[C@@H](Cc1c[nH]cn1)C(=O)N[C@@H](CCCNC(=N)N)C(=O)N[C@@H](CCCNC(=N)N)C(=O)N[C@@H](CCCNC(=N)N)C(=O)N[C@@H](Cc1c[nH]cn1)C(=O)O)[C@@H](C)CC` [Octominin] (H-GWLIRGAIHAGKAIHGLIHRRRH-OH), the “SI (selective index)=CC50/EC50” value in data set [1] (setting [6]) was 2.9; in data set [3] (setting [6]), 4.9; in data set [4] (Chinook salmon (Oncorhynchus tshawytscha), 96 h), 2.0. Besides, the CC50 in data set [2] (Chinook salmon (Oncorhynchus tshawytscha)) was 1870 µg/mL and 990 µM.

These data come from US20250041382A1, “ANTIVIRAL COMPOSITION COMPRISING OCTOMININ” (priority 2023, published 2025).
